Measurements published in US9725465B2, “Biaryl acetamide compounds and methods of use thereof” (Ambit Biosciences Corporation, priority 2013, dated 2017).

Assays:
[1] = target: FLT3-ITD (Homo sapiens (Human), UniProt P36888, INS600HVDFREYEYD); test: pFLT3 MSD assay, Ba/F3 FLT3-ITD; type: cell-based; conditions: Ba/F3 FLT3-ITD cells, 2 hours, read-out: BaF3-FLT3-ITD pFlt3 IC50
[2] = target: KIT kinase (Homo sapiens (Human), UniProt P10721); test: Competition binding assay (Kd), KIT; conditions: competition binding
Outline: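 Kd derived from eleven-point threefold serial dilutions of compound competing with bead-bound ligand for kinase; bound kinase eluted and measured by quantitative PCR. Kinase supplied either as a T7 phage fusion or expressed in HEK-293 cells with a DNA tag; DMSO served as control.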

[3] = target: FLT3 kinase (Homo sapiens (Human), UniProt P36888); test: Competition binding assay (Kd), FLT3; conditions: competition binding
Sequence of FLT3 kinase (P36888 27-993): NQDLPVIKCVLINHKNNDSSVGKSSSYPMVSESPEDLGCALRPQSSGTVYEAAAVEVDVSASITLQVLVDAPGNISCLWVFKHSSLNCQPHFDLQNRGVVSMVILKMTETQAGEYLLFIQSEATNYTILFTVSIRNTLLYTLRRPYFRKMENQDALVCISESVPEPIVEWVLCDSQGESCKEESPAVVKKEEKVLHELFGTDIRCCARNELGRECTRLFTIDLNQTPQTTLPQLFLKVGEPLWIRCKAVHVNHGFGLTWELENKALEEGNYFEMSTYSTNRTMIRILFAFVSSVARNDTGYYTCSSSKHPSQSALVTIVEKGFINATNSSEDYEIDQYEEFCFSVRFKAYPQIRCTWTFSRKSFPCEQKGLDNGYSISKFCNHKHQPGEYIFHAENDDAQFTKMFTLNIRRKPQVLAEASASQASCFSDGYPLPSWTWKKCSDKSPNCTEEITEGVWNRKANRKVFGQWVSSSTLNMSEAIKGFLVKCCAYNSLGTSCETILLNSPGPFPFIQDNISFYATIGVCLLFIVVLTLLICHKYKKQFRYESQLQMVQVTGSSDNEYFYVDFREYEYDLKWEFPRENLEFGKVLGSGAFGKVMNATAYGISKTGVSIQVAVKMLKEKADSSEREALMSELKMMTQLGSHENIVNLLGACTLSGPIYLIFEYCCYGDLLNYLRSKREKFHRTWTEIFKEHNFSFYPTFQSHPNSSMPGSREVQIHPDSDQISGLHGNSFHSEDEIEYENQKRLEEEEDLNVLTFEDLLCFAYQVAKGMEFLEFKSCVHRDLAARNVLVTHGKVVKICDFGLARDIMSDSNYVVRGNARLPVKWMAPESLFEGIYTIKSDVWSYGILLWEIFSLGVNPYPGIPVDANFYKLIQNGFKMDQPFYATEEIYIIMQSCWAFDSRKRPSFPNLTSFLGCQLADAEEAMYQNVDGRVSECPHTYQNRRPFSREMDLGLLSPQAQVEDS

Sequence of KIT kinase (P10721 26-976): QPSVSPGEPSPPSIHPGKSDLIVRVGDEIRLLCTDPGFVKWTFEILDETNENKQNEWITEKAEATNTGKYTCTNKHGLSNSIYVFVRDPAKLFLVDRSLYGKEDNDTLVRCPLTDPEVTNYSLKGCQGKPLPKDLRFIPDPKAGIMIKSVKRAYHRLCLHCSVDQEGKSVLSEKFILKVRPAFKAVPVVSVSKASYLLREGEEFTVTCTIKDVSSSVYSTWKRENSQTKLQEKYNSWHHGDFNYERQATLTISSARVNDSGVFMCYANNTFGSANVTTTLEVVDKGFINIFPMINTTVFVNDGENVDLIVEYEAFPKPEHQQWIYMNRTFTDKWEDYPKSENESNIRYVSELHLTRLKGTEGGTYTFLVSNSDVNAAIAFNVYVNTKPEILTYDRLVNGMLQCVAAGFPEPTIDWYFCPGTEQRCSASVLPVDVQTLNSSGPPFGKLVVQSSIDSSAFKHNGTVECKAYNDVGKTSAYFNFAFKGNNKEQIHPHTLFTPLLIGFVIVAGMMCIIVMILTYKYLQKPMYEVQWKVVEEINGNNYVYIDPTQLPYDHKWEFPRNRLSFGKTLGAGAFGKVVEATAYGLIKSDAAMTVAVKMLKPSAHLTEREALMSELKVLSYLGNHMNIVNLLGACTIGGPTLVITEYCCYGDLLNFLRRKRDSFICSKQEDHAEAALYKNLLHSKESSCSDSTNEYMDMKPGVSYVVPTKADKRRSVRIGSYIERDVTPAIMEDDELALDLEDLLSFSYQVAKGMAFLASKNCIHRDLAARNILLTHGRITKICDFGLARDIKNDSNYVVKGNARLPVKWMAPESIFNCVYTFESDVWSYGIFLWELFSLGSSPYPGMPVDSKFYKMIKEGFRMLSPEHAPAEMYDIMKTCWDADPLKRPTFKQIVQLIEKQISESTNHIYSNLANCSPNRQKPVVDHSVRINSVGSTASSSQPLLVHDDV
Sequence of FLT3-ITD (P36888 other isoform, or with tags, fused parts or gaps limits assumed, stated change not applied): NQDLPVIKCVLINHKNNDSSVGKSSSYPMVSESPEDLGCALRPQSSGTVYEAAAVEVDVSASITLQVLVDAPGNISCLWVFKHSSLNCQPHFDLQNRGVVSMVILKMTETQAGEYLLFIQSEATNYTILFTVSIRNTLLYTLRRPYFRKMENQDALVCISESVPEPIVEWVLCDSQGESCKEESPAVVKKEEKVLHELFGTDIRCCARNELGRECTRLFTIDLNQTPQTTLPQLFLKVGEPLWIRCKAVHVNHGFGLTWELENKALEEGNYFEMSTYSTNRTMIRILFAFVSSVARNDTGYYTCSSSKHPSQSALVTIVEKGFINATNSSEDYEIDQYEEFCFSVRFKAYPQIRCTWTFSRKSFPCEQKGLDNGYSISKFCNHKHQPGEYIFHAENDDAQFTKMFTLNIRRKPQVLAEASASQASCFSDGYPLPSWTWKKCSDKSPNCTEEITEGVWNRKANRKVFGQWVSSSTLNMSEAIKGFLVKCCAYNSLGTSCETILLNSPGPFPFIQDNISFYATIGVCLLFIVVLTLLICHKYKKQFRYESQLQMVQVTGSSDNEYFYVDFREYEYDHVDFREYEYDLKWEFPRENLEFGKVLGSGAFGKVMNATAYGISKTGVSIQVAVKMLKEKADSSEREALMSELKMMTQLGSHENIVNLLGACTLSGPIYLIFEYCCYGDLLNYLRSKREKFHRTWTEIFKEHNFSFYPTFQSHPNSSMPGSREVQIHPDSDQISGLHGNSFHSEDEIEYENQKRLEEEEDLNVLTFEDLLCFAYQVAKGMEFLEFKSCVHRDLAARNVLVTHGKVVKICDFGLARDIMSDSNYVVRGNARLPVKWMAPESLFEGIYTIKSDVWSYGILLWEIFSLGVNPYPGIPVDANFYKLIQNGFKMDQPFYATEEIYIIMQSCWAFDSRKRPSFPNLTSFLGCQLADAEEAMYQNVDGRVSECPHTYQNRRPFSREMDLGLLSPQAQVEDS

IC50 [1] [nM]	Kd [2] [nM]	Kd [3] [nM]	Structure (SMILES)
< 10	–	–	COc1cc2ncc(-c3ccc(CC(=O)Nc4cc(C5(C(F)(F)F)CC5)on4)cc3)nc2cc1OC [Example 1, 2-(4-(6,7-dimethoxyquinoxalin-2-yl)phenyl)-N-(5-(1-(trifluoromethyl)cyclopropyl)isoxazol-3-yl)acetamide]
< 10	–	–	CC(C)(C)c1cc(NC(=O)Cc2ccc(-c3cnc4[nH]ccc4c3)cc2)no1 [Example 25, 2-(4-(1H-pyrrolo[2,3-b]pyridin-5-yl)phenyl)-N-(5-(tert-butyl)isoxazol-3-yl)acetamide]
< 10	–	–	CC(C)(c1cc(NC(=O)Cc2ccc(-c3cnc4[nH]ccc4c3)cc2)no1)C(F)(F)F [Example 26, 2-(4-(1H-pyrrolo[2,3-b]pyridin-5-yl)phenyl)-N-(5-(1,1,1-trifluoro-2-methylpropan-2-yl)isoxazol-3-yl)acetamide]
< 10	–	–	CC(C)(C)c1cc(NC(=O)Cc2ccc(-c3cnc4[nH]ccc4c3)cc2F)no1 [Example 27, N-(5-(tert-butyl)isoxazol-3-yl)-2-(2-fluoro-4-(1H-pyrrolo[2,3-b]pyridin-5-yl)phenyl)acetamide]
< 10	–	–	O=C(Cc1ccc(-c2cnc3[nH]ccc3c2)cc1F)Nc1cc(C2(C(F)(F)F)CC2)on1 [Example 28, 2-(2-fluoro-4-(1H-pyrrolo[2,3-b]pyridin-5-yl)phenyl)-N-(5-(1-(trifluoromethyl)cyclopropyl)isoxazol-3-yl)acetamide]
< 10	–	–	CC(C)(c1cc(NC(=O)Cc2ccc(-c3cnc4[nH]ccc4c3)cc2F)no1)C(F)(F)F [Example 29, 2-(2-fluoro-4-(1H-pyrrolo[2,3-b]pyridin-5-yl)phenyl)-N-(5-(1,1,1-trifluoro-2-methylpropan-2-yl)isoxazol-3-yl)acetamide]
< 10	–	–	O=C(Cc1ccc(-c2cnc3[nH]ccc3n2)cc1F)Nc1cc(C2(C(F)(F)F)CC2)on1 [Example 30, 2-(2-fluoro-4-(5H-pyrrolo[2,3-b]pyrazin-2-yl)phenyl)-N-(5-(1-(trifluoromethyl)cyclopropyl)isoxazol-3-yl)acetamide]
< 10	–	–	CC(C)(C)c1cc(NC(=O)Cc2ccc(-c3cnc4[nH]ncc4c3)cc2)no1 [Example 31, 2-(4-(1H-pyrazolo[3,4-b]pyridin-5-yl)phenyl)-N-(5-(tert-butyl)isoxazol-3-yl)acetamide]
< 10	–	–	CC(C)(C)c1cc(NC(=O)Cc2ccc(-c3cnc4[nH]ncc4c3)cc2F)no1 [Example 32, N-(5-(tert-butyl)isoxazol-3-yl)-2-(2-fluoro-4-(1H-pyrazolo[3,4-b]pyridin-5-yl)phenyl)acetamide]
< 10	–	–	O=C(Cc1ccc(-c2cnc3[nH]ncc3c2)cc1F)Nc1cc(C2(C(F)(F)F)CC2)on1 [Example 33, 2-(2-fluoro-4-(1H-pyrazolo[3,4-b]pyridin-5-yl)phenyl)-N-(5-(1-(trifluoromethyl)cyclopropyl)isoxazol-3-yl)acetamide]
< 10	–	–	CC(C)(c1cc(NC(=O)Cc2ccc(-c3cnc4[nH]ncc4c3)cc2F)no1)C(F)(F)F [Example 34, 2-(2-fluoro-4-(1H-pyrazolo[3,4-b]pyridin-5-yl)phenyl)-N-(5-(1,1,1-trifluoro-2-methylpropan-2-yl)isoxazol-3-yl)acetamide]
< 10	–	–	COc1n[nH]c2ncc(-c3ccc(CC(=O)Nc4cc(C(C)(C)C(F)(F)F)on4)cc3)cc12 [Example 35, 2-(4-(3-methoxy-1H-pyrazolo[3,4-b]pyridin-5-yl)phenyl)-N-(5-(1,1,1-trifluoro-2-methylpropan-2-yl)isoxazol-3-yl)acetamide]
< 10	–	–	COc1cc(OC)c2cc(-c3ccc(CC(=O)Nc4cc(C5(C(F)(F)F)CC5)on4)c(F)c3)cnc2c1 [Example 36, 2-(4-(5,7-dimethoxyquinolin-3-yl)-2-fluorophenyl)-N-(5-(1-(trifluoromethyl)cyclopropyl)isoxazol-3-yl)acetamide]
< 10	–	–	CC(C)(C)c1cc(NC(=O)Cc2ccc(-c3cnc4[nH]nc(C#N)c4c3)cc2)no1 [Example 37, N-(5-(tert-butyl)isoxazol-3-yl)-2-(4-(3-cyano-1H-pyrazolo[3,4-b]pyridin-5-yl)phenyl)acetamide]
< 10	–	–	CC(C)(C)c1cc(NC(=O)Cc2ccc(-c3cnc4[nH]nc(Cl)c4c3)cc2)no1 [Example 38, N-(5-(tert-butyl)isoxazol-3-yl)-2-(4-(3-chloro-1H-pyrazolo[3,4-b]pyridin-5-yl)phenyl)acetamide]
< 10	–	–	CCOc1n[nH]c2ncc(-c3ccc(CC(=O)Nc4cc(C(C)(C)C(F)(F)F)on4)cc3)cc12 [Example 39, 2-(4-(3-ethoxy-1H-pyrazolo[3,4-b]pyridin-5-yl)phenyl)-N-(5-(1,1,1-trifluoro-2-methylpropan-2-yl)isoxazol-3-yl)acetamide]
< 10	–	–	Cc1n[nH]c2ncc(-c3ccc(CC(=O)Nc4cc(C(C)(C)C)on4)cc3)cc12 [Example 40, N-(5-(tert-butyl)isoxazol-3-yl)-2-(4-(3-methyl-1H-pyrazolo[3,4-b]pyridin-5-yl)phenyl)acetamide]
< 10	–	–	CC(C)(c1cc(NC(=O)Cc2ccc(-c3cnc4[nH]nnc4c3)cc2)no1)C(F)(F)F [Example 41, 2-(4-(3H-[1,2,3]triazolo[4,5-b]pyridin-6-yl)phenyl)-N-(5-(1,1,1-trifluoro-2-methylpropan-2-yl)isoxazol-3-yl)acetamide]
< 10	–	–	COc1cc2ncc(-c3ccc(CC(=O)Nc4cc(C5(C(F)(F)F)CC5)on4)cc3F)nc2cc1OC [Example 42, 2-(4-(6,7-dimethoxyquinoxalin-2-yl)-3-fluorophenyl)-N-(5-(1-(trifluoromethyl)cyclopropyl)isoxazol-3-yl)acetamide]
< 10	–	–	COc1cc2ncc(-c3ccc(CC(=O)Nc4cc(C(C)(C)C)on4)c(F)c3)nc2cc1OC [Example 43, N-(5-(tert-butyl)isoxazol-3-yl)-2-(4-(6,7-dimethoxyquinoxalin-2-yl)-2-fluorophenyl)acetamide]
< 10	–	–	CC(C)(c1cc(NC(=O)Cc2ccc(-c3cnc4[nH]ncc4c3)cc2)no1)C(F)(F)F [Example 44, 2-(4-(1H-pyrazolo[3,4-b]pyridin-5-yl)phenyl)-N-(5-(1,1,1-trifluoro-2-methylpropan-2-yl)isoxazol-3-yl)acetamide]
–	< 5	< 5	COc1cc2nc(-c3ccc(CC(=O)Nc4cc(C5(C(F)(F)F)CC5)on4)c(F)c3)cnc2cc1OCCN1CCNCC1 [Example 241, 2-[2-fluoro-4-[7-methoxy-6-(2-piperazin-1-ylethoxy)quinoxalin-2-yl]phenyl]-N-[5-[1-(trifluoromethyl)cyclo-propyl]isoxazol-3-yl]acetamide]
–	< 5	< 5	COc1cc2nc(-c3ccc(CC(=O)Nc4cc(C5(C(F)(F)F)CC5)on4)c(F)c3)cnc2cc1OCCN1CCO[C@H](C)C1 [Example 242, 2-[2-fluoro-4-[7-methoxy-6-[2-[(2R)-2-methylmorpholin-4-yl]ethoxy]quinoxalin-2-yl]phenyl]-N-[5-[1-(trifluoromethyl)cyclo-propyl]isoxazol-3-yl]acetamide]
–	< 5	< 5	COc1cc2nc(-c3ccc(CC(=O)Nc4cc(C5(C(F)(F)F)CC5)on4)c(F)c3)cnc2cc1OCCN1CCOC[C@@H]1C [Example 243, 2-[2-fluoro-4-[7-methoxy-6-[2-[(3S)-3-methylmorpholin-4-yl]ethoxy]quinoxalin-2-yl]phenyl]-N-[5-[1-(trifluoromethyl)cyclo-propyl]isoxazol-3-yl]acetamide]
–	< 5	< 5	COc1cc2nc(-c3ccc(CC(=O)Nc4cc(C5(C(F)(F)F)CC5)on4)c(F)c3)cnc2cc1OCCN1CC2CCC(C1)O2 [Example 244, 2-[2-fluoro-4-[7-methoxy-6-[2-(8-oxa-3-azabicyclo[3.2.1]octan-3-yl)ethoxy]quinoxalin-2-yl]phenyl]-N-[5-[1-(trifluoromethyl)cyclo-propyl]isoxazol-3-yl]acetamide]
–	< 5	< 5	COc1cc2nc(-c3ccc(CC(=O)Nc4cc(C(C)(C)C(F)(F)F)on4)c(F)c3)cnc2cc1OCC(C)(C)O [Example 246, 2-[2-fluoro-4-[6-(2-hydroxy-2-methyl-propoxy)-7-methoxy-quinoxalin-2-yl]phenyl]-N-[5-(2,2,2-trifluoro-1,1-dimethyl-ethyl)isoxazol-3-yl]acetamide]
–	< 5	< 5	COc1cc2nc(-c3ccc(CC(=O)Nc4cc(C5(C(F)(F)F)CC5)on4)c(F)c3)cnc2cc1OCCN1CCOC[C@H]1C [Example 247, 2-[2-fluoro-4-[7-methoxy-6-[2-[(3R)-3-methylmorpholin-4-yl]ethoxy]quinoxalin-2-yl]phenyl]-N-[5-[1-(trifluoromethyl)cyclo-propyl]isoxazol-3-yl]acetamide]
–	< 5	< 5	COc1cc2nc(-c3ccc(CC(=O)Nc4cc(C5(C(F)(F)F)CC5)on4)c(F)c3)cnc2cc1OCCN1CCO[C@@H](C)C1 [Example 248, 2-[2-fluoro-4-[7-methoxy-6-[2-[(2S)-2-methylmorpholin-4-yl]ethoxy]quinoxalin-2-yl]phenyl]-N-[5-[1-(trifluoromethyl)cyclo-propyl]isoxazol-3-yl]acetamide]
–	< 5	< 5	COc1cc2nc(-c3ccc(CC(=O)Nc4cc(C5(C(F)(F)F)CC5)on4)c(F)c3)cnc2cc1OCC(C)(C)O [Example 249, 2-[2-fluoro-4-[6-(2-hydroxy-2-methyl-propoxy)-7-methoxy-quinoxalin-2-yl]phenyl]-N-[5-[1-(trifluoro-methyl)cyclopropyl]isoxazol-3-yl]acetamide]

Structure (SMILES)	IC50 [1] [nM]	Kd [2] [nM]	Kd [3] [nM]
COc1cc2nc(-c3ccc(CC(=O)Nc4cc(C5(C(F)(F)F)CC5)on4)c(F)c3)cnc2cc1OCCN1C2CCC1COC2 [Example 245, 2-[2-fluoro-4-[7-methoxy-6-[2-(3-oxa-8-azabicyclo[3.2.1]octan-8-yl)ethoxy]quinoxalin-2-yl]phenyl]-N-[5-[1-(trifluoromethyl)cyclo-propyl]isoxazol-3-yl]acetamide]	–	< 5	< 5
